Legend:
Galectin-3 = Galectin-3 (Homo sapiens, UniProt P17931); test: Inhibitory Activity Assay
Method: (§1) The inhibitory activity of compounds is determined in competitive binding assays. This spectrophotometric assay measures the binding of biotinylated human Gal-3 (hGal-3) or human Gal-1 (hGal-1), respectively, to a microplate-adsorbed glycoprotein, asialofetuin (ASF) (Proc Natl Acad Sci USA. 2013 Mar. 26; 110(13):5052-7.). Alternatively, and preferably, a human Gal-1 version in which all six cysteines are substituted by serines may be used.Briefly, compounds are serially diluted in DMSO (working dilutions). ASF-coated 384 well plates are supplemented with 22.8 μL/well of biotinylated hGal-3 or hGal-1 in assay buffer (i.e. 300-1000 ng/mL biotinylated hGal-3 or hGal-1) to which 1.2 μL of compound working dilutions are added and mixed.Plates are incubated for 3 hours at 4° C., then washed with cold assay buffer (3×50 uL), incubated for 1 hour with 25 μL/well of a streptavidin-peroxidase solution (diluted in assay buffer to 80 ng/mL) at 4° C., followed by further washing steps with assay buffer (3×50 uL). Finally, 25 μL/well of ABTS substrate is added.

Galectin-1 = Galectin-1 (Homo sapiens, UniProt P09382); test: Inhibitory Activity Assay
Sequence of Galectin-1 (P09382 whole entry): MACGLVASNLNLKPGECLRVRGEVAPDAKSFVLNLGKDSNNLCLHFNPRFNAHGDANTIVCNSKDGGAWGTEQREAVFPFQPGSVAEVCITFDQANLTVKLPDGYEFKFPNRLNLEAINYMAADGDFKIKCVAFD
Method: as §1

Sequence of Galectin-3 (P17931 whole entry): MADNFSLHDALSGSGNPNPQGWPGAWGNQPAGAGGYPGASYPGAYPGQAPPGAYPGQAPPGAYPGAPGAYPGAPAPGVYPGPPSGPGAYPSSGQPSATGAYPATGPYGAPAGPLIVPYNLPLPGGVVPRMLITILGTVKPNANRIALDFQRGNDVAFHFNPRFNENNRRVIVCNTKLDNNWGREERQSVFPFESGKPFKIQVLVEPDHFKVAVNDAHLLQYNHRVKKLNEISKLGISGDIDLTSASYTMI

SMILES	IC50 (Galectin-3) [µM]	IC50 (Galectin-1) [µM]
CO[C@@H]1[C@@H](n2cc(-c3cc(F)c(F)c(F)c3)nn2)[C@@H](O)[C@@H](CO)O[C@@H]1CC1=NOC(C(C)(C)O)C1 (some centres undefined) [US12319672, Example 1.68]	0.47	5.09
CO[C@@H]1[C@@H](n2cc(-c3ccc(Br)c(F)c3F)nn2)[C@@H](O)[C@@H](CO)O[C@@H]1Cc1cc(C2CCN(S(C)(=O)=O)CC2)on1 [US12319672, Example 1.155]	0.022	1.05
CO[C@@H]1[C@@H](n2cc(-c3ccc(Cl)c(F)c3F)nn2)[C@@H](O)[C@@H](CO)O[C@@H]1Cc1cc(C2CCN(C(C)=O)CC2)on1 [US12319672, Example 1.163]	0.043	0.71
CO[C@@H]1[C@@H](n2cc(-c3cc(F)c(Cl)c(F)c3)nn2)[C@@H](O)[C@@H](CO)O[C@@H]1Cc1cc(C2CCN(C(C)=O)CC2)on1 [US12319672, Example 1.167]	0.04	0.91
CO[C@@H]1[C@@H](n2cc(-c3ccc(F)c(F)c3F)nn2)[C@@H](O)[C@@H](CO)O[C@@H]1Cc1cc(-c2ccc(F)c(F)c2F)on1 [US12319672, Example 1.230]	0.54	> 100
CO[C@@H]1[C@@H](n2cc(-c3ccc(F)c(F)c3F)nn2)[C@@H](O)[C@@H](CO)O[C@@H]1Cc1cc(C2(C#N)CCCC2)on1 [US12319672, Example 1.277]	0.14	1.47
CO[C@@H]1[C@@H](n2cc(-c3ccc(Cl)c(F)c3F)nn2)[C@@H](O)[C@@H](CO)O[C@@H]1Cc1cc(C2(C#N)CCCC2)on1 [US12319672, Example 1.279]	0.12	3.21
Cc1nc2ccc(-c3cn([C@H]4[C@@H](O)[C@@H](CO)O[C@H](CC5CC(C6CCN(C(=O)OC(C)(C)C)CC6)=NO5)[C@@H]4O)nn3)cc2s1 (some centres undefined) [US12319672, Example 1.299]	4.04	3.84
CC(C)(C)c1cc(C[C@H]2O[C@H](CO)[C@H](O)[C@H](n3cc(-c4ccc(Cl)c(F)c4F)nn3)[C@H]2O)on1 [US12319672, Example 1.302]	0.036	1
CO[C@@H]1[C@@H](n2cc(-c3ccc(C)c(F)c3F)nn2)[C@H]2OC(C)(C)OC[C@H]2O[C@@H]1Cc1cc(C(C)c2ccccc2)no1 (some centres undefined) [US12319672, Example 1.341]	0.2	15.7
CO[C@@H]1[C@@H](n2cc(-c3ccc(C)c(F)c3F)nn2)[C@@H](O)[C@@H](CO)O[C@@H]1Cc1cc(C2(O)CCC2)no1 [US12319672, Example 2.57]	0.081	1.45
CC(=O)N1CCC(c2cc(C[C@H]3O[C@H](CO)[C@H](O)[C@H](n4cc(-c5cc(F)c(F)c(F)c5)nn4)[C@H]3O)no2)CC1 [US12319672, Example 3.17]	0.046	0.96

Reference: BindingDB's records for patent US12319672 (Idorsia Pharmaceuticals, 2025)
